Our source for the Papp values is patent publication US20230096766A1, “AMINO ACID HAVING FUNCTIONAL GROUP CAPABLE OF INTERMOLECULAR HYDROGEN BONDING, PEPTIDE COMPOUND CONTAINING SAME AND METHOD FOR PRODUCTION THEREOF” (Chugai Seiyaku Kabushiki Kaisha, priority 2018, published 2023).

For orientation: Papp means the rate of passage across a membrane or cell layer, normalised by area and donor concentration. A higher Papp goes with ready permeation.

*1 amine or outer side, *2 acyl side, *3 side chain or, on linkers, in order; H or OH if unused. Where a SMILES comes first, the peptide text is derived from it. Bridges are numbered along the chain shown (N, C = ends). [ ]: non-standard residue; d: D form. The star is where a group is joined. Tyr(3-F) = N[C@@H](Cc1ccc(O)c(F)c1)C(=O)O; NMeF = CN[C@@H](Cc1ccccc1)C(=O)O; NMeGABA = CN(CCCC(=O)[*:2])[*:1]; NMeI = CC[C@H](C)[C@H](NC)C(=O)O; NMeL = CN[C@@H](CC(C)C)C(=O)O; NMeV = CN[C@H](C(=O)O)C(C)C; NMeA = CN[C@@H](C)C(=O)O; Piperidide = C1CCN(*)CC1; Sar = CNCC(=O)O; tBu = CC(C)(C)*

A short description of this data set: in vitro. As to conditions: human, Caco-2, Caco-2 (cm/sec).
In turn, `CC(C)C[C@@H]1NC(=O)[C@H](C)N(C)C(=O)C[C@@H](C(=O)N2CCCCC2)NC(=O)[C@H](CC(C)C)N(C)C(=O)CN(C)C(=O)[C@H](Cc2ccc(O)c(F)c2)NC(=O)[C@H](CC(C)C)N(C)C(=O)[C@H](C)N(C)C(=O)[C@H](C)NC(=O)[C@H](Cc2ccccc2)N(C)C(=O)[C@H](CC(C)C)N(C)C1=O` [pd120] ([NMeA]L[NMeL][NMeF]A[NMeA][NMeL][Tyr(3-F)][Sar][NMeL]D-Piperidide; lactam N-11) had a Papp of 0.23 ×10⁻⁶ cm/s.

Consider `CC(C)C[C@H]1C(=O)N[C@@H](COC(C)(C)C)C(=O)N(C)[C@@H](Cc2ccccc2)C(=O)N(C)[C@@H](C(C)C)C(=O)N[C@H](C(=O)N2CCCCC2)CC(=O)N[C@H](C(C)C)C(=O)N(C)[C@@H](C)C(=O)N[C@@H](C(C)C)C(=O)N(C)[C@@H](CC(C)C)C(=O)N[C@@H](Cc2ccc(O)cc2)C(=O)N(C)CC(=O)N1C` [pd121] ([dV][NMeA]V[NMeL]Y[Sar][NMeL]S(tBu)[NMeF][NMeV]D-Piperidide; lactam N-11), for which the apparent permeability (Papp) stood at 1 ×10⁻⁶ cm/s.

`CC(C)C[C@H]1C(=O)N[C@H](C(=O)N2CCCCC2)CC(=O)N(C)[C@@H](C)C(=O)N[C@@H](Cc2ccc(O)c(F)c2)C(=O)N(C)[C@@H](CC(C)C)C(=O)N(C)[C@@H](CC(C)C)C(=O)N[C@@H](C(C)C)C(=O)N(C)[C@@H](Cc2ccccc2)C(=O)N(C)[C@@H](CC(C)C)C(=O)N[C@@H]([C@@H](C)O)C(=O)N(C)CC(=O)N1C` [pd122] ([NMeA][Tyr(3-F)][NMeL][NMeL]V[NMeF][NMeL]T[Sar][NMeL]D-Piperidide; lactam N-11) displayed a Papp of 0.46 ×10⁻⁶ cm/s.

`CC(C)C[C@@H]1NC(=O)[C@H](CC(C)C)N(C)C(=O)[C@H](Cc2ccccc2)N(C)C(=O)CN(C)C(=O)[C@H]([C@@H](C)O)NC(=O)[C@H](CC(C)C)N(C)C(=O)[C@H](Cc2ccc(O)c(F)c2)NC(=O)[C@H](CC(C)C)N(C)C(=O)CN(C)C(=O)C[C@@H](C(=O)N2CCCCC2)NC(=O)[C@H](CC(C)C)N(C)C1=O` [pd123] ([Sar][NMeL][Tyr(3-F)][NMeL]T[Sar][NMeF][NMeL]L[NMeL]D-Piperidide; lactam N-11) came in with an apparent permeability coefficient (Papp) of 0.44 ×10⁻⁶ cm/s.

For the compound `CC[C@H](C)[C@@H]1NC(=O)[C@H](CC(C)C)N(C)C(=O)[C@@H](C)NC(=O)C[C@@H](C(=O)N2CCCCC2)NC(=O)[C@H](C)N(C)C(=O)[C@H](Cc2ccccc2)N(C)C(=O)[C@H](COC(C)(C)C)NC(=O)[C@H](CC(C)C)N(C)C(=O)CN(C)C(=O)[C@H](Cc2ccc(O)c(F)c2)NC(=O)[C@H](CC(C)C)N(C)C1=O` [pd124] ([dA][NMeL]I[NMeL][Tyr(3-F)][Sar][NMeL]S(tBu)[NMeF][NMeA]D-Piperidide; lactam N-11), the Papp turned out to be 0.32 ×10⁻⁶ cm/s.

On to `CC[C@H](C)[C@@H]1NC(=O)[C@H](C(C)C)N(C)C(=O)CCCN(C)C(=O)C[C@@H](C(=O)N2CCCCC2)NC(=O)[C@H](CC(C)C)N(C)C(=O)[C@H](C)N(C)C(=O)[C@H](Cc2ccc(O)cc2)NC(=O)[C@H](CC(C)C)N(C)C(=O)[C@H](COC(C)(C)C)NC(=O)[C@H](Cc2ccccc2)N(C)C(=O)[C@H](CC(C)C)N(C)C1=O` [pd125] ([NMeGABA][NMeV]I[NMeL][NMeF]S(tBu)[NMeL]Y[NMeA][NMeL]D-Piperidide; lactam N-11), for which the Papp came to 0.45 ×10⁻⁶ cm/s.

The compound `CC[C@H](C)[C@H]1C(=O)N[C@@H](Cc2ccc(O)cc2)C(=O)N(C)CC(=O)N(C)[C@@H](CC(C)C)C(=O)N[C@H](C(=O)N2CCCCC2)CC(=O)N(C)[C@@H](C)C(=O)N[C@@H](C(C)C)C(=O)N(C)[C@@H](CC(C)C)C(=O)N(C)[C@@H](CC(C)C)C(=O)N[C@@H](C)C(=O)N(C)[C@@H](Cc2ccccc2)C(=O)N1C` [pd126] ([NMeA]V[NMeL][NMeL]A[NMeF][NMeI]Y[Sar][NMeL]D-Piperidide; lactam N-11) showed an apparent permeability coefficient (Papp) of 0.42 ×10⁻⁶ cm/s.
